Measured values from patent publication WO2020032435A1 (priority 2018, dated 2019).

What was measured:
IGF = experiment: IGF-1 mRNA expression in human dermal papilla cells, RT-PCR; format: cell-based; settings: Human dermal papilla cell, 24 hours, read-out: increase in mRNA expression of IGF
[1] = tested on: human dermal papilla cells; experiment: Cell proliferation of human dermal papilla cells, MTT assay; settings: 24 h, read-out: proliferation rate increase
cycD = experiment: Cyclin D mRNA expression in human dermal papilla cells, RT-PCR; format: cell-based; settings: Human dermal papilla cell, 24 hours, read-out: increase in mRNA expression of cycD
cAMP = cAMP concentration in human dermal papilla cells, ELISA; format: cell-based; settings: Human dermal papilla cell, 24 hours, DMSO negative control, read-out: increase in cAMP concentration
IGF-1 = IGF-1 concentration in culture medium of human dermal papilla cells, ELISA; format: cell-based; settings: Human dermal papilla cell, 24 hours, DMSO negative control, read-out: increase in IGF-1 concentration
VEGF [2] = experiment: VEGF concentration in culture medium of human dermal papilla cells, ELISA; format: cell-based; settings: Human dermal papilla cell, 24 hours, DMSO negative control, read-out: increase in VEGF concentration
VEGF [3] = experiment: VEGF mRNA expression in human dermal papilla cells, RT-PCR; format: cell-based; settings: Human dermal papilla cell, 24 hours, read-out: increase in mRNA expression of VEGF
LEF = LEF mRNA expression in human dermal papilla cells, RT-PCR; format: cell-based; settings: Human dermal papilla cell, 24 hours, read-out: increase in mRNA expression of LEF

Q: With COc1ccc2ccccc2c1 [Yarayara, 2-methoxynaphthalene] as the compound, how does the activation at 20 µM (IGF) read?
A: 270%

Q: What about the activation at 10 µM [1] of the same compound?
A: 10.6%

Q: And the activation at 20 µM [1]?
A: 37%

Q: And the activation at 50 µM [1]?
A: 28%

Q: And the activation at 20 µM (cycD)?
A: 262%

Q: What about the activation at 20 µM (cAMP) of the same compound?
A: 47%

Q: And the activation at 20 µM (IGF-1)?
A: 22%

Q: What about the activation at 20 µM (VEGF [2]) of the same compound?
A: 30%

Q: And the activation at 20 µM (VEGF [3])?
A: 274%

Q: What about the activation at 20 µM (LEF) of the same compound?
A: 340%
